This is an account of results in patent US20080241254A1, “PHARMACEUTICAL COMPOSITION COMPRISING ATOVAQUONE PARTICLES” (priority 2007, published 2008).

The nature of data set [1]: Particle size of atovaquone particles, light scattering (Malvern Mastersizer). To be noted: milled atovaquone particles before formulation. It counts as physicochemical. The source says: Conventionally known particle size analysis methods can be used suitably for determining the particle size. For example, particle size measurement can be done using light-scattering methods and turbidimetric methods, sedimentation methods, such as pipette analysis technique using an Andreassen pipette, sedimentation scales, photosedimentometers and sedimentation in a centrifugal force field, pulse methods, for example using a Coulter counter, or sorting by means of gravitational or centrifugal force.
The term “d9o value” means at least 90% of atovaquone particles have volume diameter less than specified value when measured by a light scattering method, for example, Malvern Mastersizer.
Atovaquone was air jet milled using at inlet feeder air pressure of 6 kg/cm2 and inlet miller air pressure of 8 kg/cm2 at the rate of 100 g/hour. After one cycle the contents were again milled through air jet mill for second cycle to obtain the desired particle size.

For data set [2] the following is noted: cited from earlier work.
For data set [3] the following is noted: single oral dose, presence of fatty food; cited from earlier work.

On to `O=C1C(O)=C(C2CCC(c3ccc(Cl)cc3)CC2)C(=O)c2ccccc21` (stereo not shown) [Atovaquone, 2-[4-(4-chlorophenyl)cyclohexyl]-3-hydroxy-1,4-naphthoquinone], for which the d90 particle size in data set [1] is reported as 5.34 μm. Further, the d50 particle size in data set [1] (measured by Malvern) stood at 2.42 μm. For the same compound, the aqueous solubility entry in data set [2] is “low aqueous solubility”. In data set [3], the “effect of fatty food on absorption” value is given as “increased about threefold”.
